Laboratory results published in US11813306B2, “Cyclic tetramer compounds as proprotein convertase subtilisin/kexin type 9 (PCSK9) inhibitors for the treatment of metabolic disorders” (NOVARTIS AG, priority 2018, dated 2023).

Molecular target: human PCSK9 (Homo sapiens, UniProt Q8NBP7)
Assay: PCSK9 ligand binding assay (TR-FRET): interference with binding of human PCSK9 to human LDLR
Settings: for IC50: Human PCSK9 Alexa Fluor 647 / Human LDLR extracellular domain-Europium Kryptate; for Max % inhibition: efficacy (Amax), 100% = 1 uM unlabeled human PCSK9, 0% = DMSO
Procedure: Example 10: PCSK9 Ligand Binding Assay
The PCSK9 binding of the compounds of the disclosure were measured using a time resolved fluorescence resonance energy transfer (TR-FRET) assay. This time resolved fluorescence resonance energy transfer (TR-FRET) assay measures the ability of a compound of the present disclosure to interfere with the binding of human PCSK9 to human LDLR, providing measures of both potency (IC50) and efficacy (Amax).
Human PCSK9 Alexa Fluor 647
Human LDLR extracellular domain-Europium Kryptate
Proxi plate-low volume assay plate (PerkinElmer #6008280)
Greiner V-bottom (Greiner BioOne #781280)
Assay Buffer • 20 mM HEPES, pH 7.5 • 150 mM NaCl • 1 mM CaCl2 • 0.01% v/v Tween20 • 0.01% w/v BSA
A master compound plate was prepared in a Greiner V bottom plate by diluting compounds of the disclosure in dimethylsulfoxide to the correct concentration for the desired top concentration based on the desired final concentration: for a 30 uM final concentration the master plate concentration is 1.5 mM (68 uL DMSO+12 uL 10 mM of a compound of the disclosure), for a 10 uM final concentration the master plate concentration is 0.5 mM (76 uL DMSO+4 uL 10 mM of a compound of the disclosure), for a 3 uM final concentration the master plate concentration is 150 uM (69 uL DMSO+1 uL 10 mM of a compound of the disclosure). These solutions were pipetted into columns 1 and 11 of the compound plate. Threefold serial dilutions were generated in columns 2-10 and 12-20 of the compound plate by transferring 10 uL into 20 uL of DMSO. Columns 21 and 22 of the compound plate were negative controls containing DMSO alone.
An intermediate plate was generated in a Greiner V bottom plate by transferring 8 uL from each well of the master plate into a corresponding well containing 92 uL of assay buffer and mixing thoroughly.
A Proxi plate-low volume assay plate was used for the assay. To all wells of the plate was added 10 uL of 16 nM Human PCSK9 Alexa Fluor 647, followed by 5 uL from the intermediate plate. For the positive control wells in columns 23 and 24 of the plate, 5 uL of unlabeled human PCSK9 was added at 4 uM in assay buffer containing 8% DMSO. Following a 30 minute incubation, 5 uL of 4 nM Human LDLR extracellular domain-Europium Kryptate was added and the mixture was incubated for an additional 2 hours.
The TR-FRET signal was measured on an EnVision or PheraStar instrument with a 60 ms delay, 330 nm excitation and 665 nm emission (FRET), and 330 nm excitation and 615 nm (Europium). The FRET ratio (FRET/Europium) was used for calculations.
No inhibition (0%) was observed from the wells containing DMSO (Control) in columns 21 and 22 of the compound plate. Full inhibition (100%) was observed from the wells containing 1 uM human PCSK9 (Control) in columns 23 and 24 of the plate. Data is expressed as percent inhibition: (value—0%)/(100%-0%).

Sequence of human PCSK9 (Q8NBP7 153-692): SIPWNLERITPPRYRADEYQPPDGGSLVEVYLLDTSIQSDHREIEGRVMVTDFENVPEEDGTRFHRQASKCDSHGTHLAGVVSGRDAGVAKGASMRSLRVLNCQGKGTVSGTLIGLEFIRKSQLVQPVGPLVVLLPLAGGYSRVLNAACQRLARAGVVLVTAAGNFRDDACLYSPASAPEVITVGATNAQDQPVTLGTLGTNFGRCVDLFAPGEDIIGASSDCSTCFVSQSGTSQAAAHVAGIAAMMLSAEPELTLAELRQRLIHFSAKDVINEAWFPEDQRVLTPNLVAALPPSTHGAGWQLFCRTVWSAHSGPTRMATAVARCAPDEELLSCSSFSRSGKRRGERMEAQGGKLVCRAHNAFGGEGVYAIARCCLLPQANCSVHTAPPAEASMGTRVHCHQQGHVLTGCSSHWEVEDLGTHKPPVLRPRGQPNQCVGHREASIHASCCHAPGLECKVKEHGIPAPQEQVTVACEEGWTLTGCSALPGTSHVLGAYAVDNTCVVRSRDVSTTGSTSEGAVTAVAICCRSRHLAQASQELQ
Sequence of human PCSK9 (Q8NBP7 31-152 partner limits assumed): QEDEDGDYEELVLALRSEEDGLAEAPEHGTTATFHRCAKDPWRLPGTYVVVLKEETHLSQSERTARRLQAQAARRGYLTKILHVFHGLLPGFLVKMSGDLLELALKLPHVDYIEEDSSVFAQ

| SMILES | IC50 | Max % inhibition |
| --- | --- | --- |
| COC[C@@H]1NC(=O)[C@H](C)N(Cc2ccc(Cl)cc2Oc2ccc(-c3cnc(CN(C)C)n3C)nc2)C(=O)C[C@@H](Cc2ccccc2)C(=O)N2CCC[C@@](Cc3ccc(Cl)cc3)(C2)N(C)C1=O [Compound 27, (3R,7S,10S,13R)-3-Benzyl-6-(4-chloro-2-((6-(2-((dimethylamino)methyl)-1-methyl-1H-imidazol-5-yl)pyridin-3-yl)oxy)benzyl)-13-(4-chlorobenzyl)-10-(methoxymethyl)-7,12-dimethyl-1,6,9,12-tetraazabicyclo[11.3.1]heptadecane-2,5,8,11-tetraone] | 0.627 nM | 111.0% |
| C[C@H]1C(=O)N[C@@H](CO)C(=O)N[C@@]2(Cc3ccc(Cl)cc3)CCCN(C2)C(=O)[C@H](CC(F)(F)F)CC(=O)N1Cc1c(F)cc(Cl)cc1Oc1ccc(-c2cnc(CN3CCC3)n2C)cc1 [Compound 28, (3S, 7S, 10S, 13R)-6-(2-(4-(2-(azetidin-1-ylmethyl)-1-methyl-1H-imidazol-5-yl)phenoxy)-4-chloro-6-fluorobenzyl)-13-(4-chlorobenzyl)-10-(hydroxymethyl)-7-methyl-3-(2,2,2-trifluoroethyl)-1,6,9,12-tetraazabicyclo[11.3.1]heptadecane-2,5,8,11-tetraone] | 0.612 nM | 114.2% |
| COC[C@@H]1NC(=O)[C@H](C)N(Cc2ncc(Cl)cc2Oc2ccc(-c3cnc(CN(C)C)n3C)cc2)C(=O)C[C@@H](CC(F)(F)F)C(=O)N2CCC[C@@](Cc3ccc(Cl)cc3)(C2)NC1=O [Compound 29, (3S, 7S, 10S, 13R)-6-((5-chloro-3-(4-(2-((dimethylamino)methyl)-1-methyl-1H-imidazol-5-yl)phenoxy)pyridin-2-yl)methyl)-13-(4-chlorobenzyl)-10-(methoxymethyl)-7-methyl-3-(2,2,2-trifluoroethyl)-1,6,9,12-tetraazabicyclo[11.3.1]heptadecane-2,5,8,11-tetraone] | 0.97 nM | 119.8% |
| C[C@H]1C(=O)N[C@@H](COC(F)F)C(=O)N[C@@]2(Cc3ccc(Cl)cc3)CCCN(C2)C(=O)[C@H](Cc2ccccn2)CC(=O)N1Cc1ccc(Cl)cc1Oc1ccc(-c2cnc(CN3CCCC3)n2C)cc1 [Compound 30, (3R,7S,10S,13R)-6-(4-Chloro-2-(4-(1-methyl-2-(pyrrolidin-1-ylmethyl)-1H-imidazol-5-yl)phenoxy)benzyl)-13-(4-chlorobenzyl)-10-((difluoromethoxy)methyl)-7-methyl-3-(pyridin-2-ylmethyl)-1,6,9,12-tetraazabicyclo[11.3.1]heptadecane-2,5,8,11-tetraone] | 0.819 nM | 106.2% |
| C[C@H]1C(=O)N[C@@H](CO)C(=O)N[C@@]2(Cc3ccc(Cl)cc3)CCCN(C2)C(=O)[C@H]([C@H]2CCc3ccccc32)CC(=O)N1Cc1ccc(Cl)cc1Oc1ccc(-c2cnc(CN(C)C)n2C)cn1 [Compound 31, (3S, 7S, 10S, 13R)-6-(4-chloro-2-((5-(2-((dimethylamino)methyl)-1-methyl-1H-imidazol-5-yl)pyridin-2-yl)oxy)benzyl)-13-(4-chlorobenzyl)-3-((R)-2,3-dihydro-1H-inden-1-yl)-10-(hydroxymethyl)-7-methyl-1,6,9,12-tetraazabicyclo[11.3.1]heptadecane-2,5,8,11-tetraone] | 1.1 nM | 98.3% |
| COC[C@@H]1NC(=O)[C@H](C)N(Cc2ccc(Cl)cc2Oc2ccc(-c3cnc(CN4CCC4)n3C)cc2)C(=O)C[C@@H](CC(F)(F)F)C(=O)N2CCC[C@@](Cc3ccc(Cl)cc3)(C2)NC1=O [Compound 33, (3S,7S,10S,13R)-6-(2-(4-(2-(Azetidin-1-ylmethyl)-1-methyl-1H-imidazol-5-yl)phenoxy)-4-chlorobenzyl)-13-(4-chlorobenzyl)-10-(methoxymethyl)-7-methyl-3-(2,2,2-trifluoroethyl)-1,6,9,12-tetraazabicyclo[11.3.1]heptadecane-2,5,8,11-tetraone] | 1.05 nM | 113.0% |
| COC[C@@H]1NC(=O)[C@H](C)N(Cc2ccc(Cl)cc2Oc2ccc(-c3cnc(CN(C)C)n3C)cc2)C(=O)C[C@@H](Cc2ncco2)C(=O)N2CCC[C@@](Cc3ccc(Cl)cc3)(C2)NC1=O [Compound 35, (3R, 7S, 10S, 13R)-6-(4-chloro-2-(4-(2-((dimethylamino)methyl)-1-methyl-1H-imidazol-5-yl)phenoxy)benzyl)-13-(4-chlorobenzyl)-10-(methoxymethyl)-7-methyl-3-(oxazol-2-ylmethyl)-1,6,9,12-tetraazabicyclo[11.3.1]heptadecane-2,5,8,11-tetraone] | 0.914 nM | 105.0% |

Stronger by IC50, values ahead:

| IC50 | Max % inhibition | SMILES |
| --- | --- | --- |
| 0.584 nM | 104.5% | C[C@H]1C(=O)N[C@@H](CO)C(=O)N[C@@]2(Cc3ccc(Cl)cc3)CCCN(C2)C(=O)CCC(=O)N1Cc1c(OCC(F)(F)F)cc(Cl)cc1Oc1ccc(-c2cnc(CN(C)C)n2C)cc1 [Compound 36, (7S, 10S, 13R)-6-(4-chloro-2-(4-(2-((dimethylamino)methyl)-1-methyl-1H-imidazol-5-yl)phenoxy)-6-(2,2,2-trifluoroethoxy)benzyl)-13-(4-chlorobenzyl)-10-(hydroxymethyl)-7-methyl-1,6,9,12-tetraazabicyclo[11.3.1]heptadecane-2,5,8,11-tetraone] |
| 0.509 nM | 101.6% | C[C@H]1C(=O)N[C@@H](CO)C(=O)N[C@@]2(Cc3ccc(Cl)cc3)CCCN(C2)C(=O)[C@H](Cc2c(F)cccc2F)CC(=O)N1Cc1c(F)cc(Cl)cc1Oc1ccc(-c2cnc(CN(C)C)n2C)cc1 [Compound 34, (3R, 7S, 10S, 13R)-6-(4-chloro-2-(4-(2-((dimethylamino)methyl)-1-methyl-1H-imidazol-5-yl)phenoxy)-6-fluorobenzyl)-13-(4-chlorobenzyl)-3-(2,6-difluorobenzyl)-10-(hydroxymethyl)-7-methyl-1,6,9,12-tetraazabicyclo[11.3.1]heptadecane-2,5,8,11-tetraone] |
| 0.48 nM | 98.3% | CC[C@@H]1CC(=O)N(Cc2ccc(Cl)cc2Oc2ccc(-c3cnc(CN4CCCC4)n3C)cc2)[C@@H](C)C(=O)N[C@@H](CO)C(=O)N[C@@]2(Cc3ccc(Cl)cc3)CCCN(C2)C1=O [Compound 26, (3R, 7S, 10S, 13R)-6-(4-chloro-2-(4-(1-methyl-2-(pyrrolidin-1-ylmethyl)-1H-imidazol-5-yl)phenoxy)benzyl)-13-(4-chlorobenzyl)-3-ethyl-10-(hydroxymethyl)-7-methyl-1,6,9,12-tetraazabicyclo[11.3.1]heptadecane-2,5,8,11-tetraone] |
| 0.447 nM | 105.8% | C[C@H]1C(=O)N[C@@H](CO)C(=O)N(C)[C@@]2(Cc3ccc(Cl)cc3)CCCN(C2)C(=O)[C@H](Cc2ccccn2)CC(=O)N1Cc1c(F)cc(Cl)cc1Oc1ccc(-c2cnc(CN(C)C)n2C)cc1 [Compound 32, (3R,7S,10S,13R)-6-(4-Chloro-2-(4-(2-((dimethylamino)methyl)-1-methyl-1H-imidazol-5-yl)phenoxy)-6-fluorobenzyl)-13-(4-chlorobenzyl)-10-(hydroxymethyl)-7,12-dimethyl-3-(pyridin-2-ylmethyl)-1,6,9,12-tetraazabicyclo[11.3.1]heptadecane-2,5,8,11-tetraone] |
